Measurements as given in patent US8461118B2, “Lytic peptides having anti-proliferative activity against prostate cancer cells” (Tuskegee University, priority 2011, dated 2013).
Several values for one entry are separate records, joined by “and”; a condition that tells them apart may be missing. Equal values may be shown once. Entries after “also recorded” stand apart in the source; their conditions may differ. Ends that are not written are not given here.

Legend:
[1] = system: GFP-HS-27a bone marrow stromal cells; experiment: Co-culture differential fluorescence, GFP-HS-27a bone marrow stromal cells; format: cell-based; conditions: for relative intensity of GFP-HS-27a cells: JCHmLHRH 5 μM or JC21mLHRH 8 μM, 12 hr
Experimental: In the various experiments described below, unless otherwise noted, co-cultures were prepared and utilized as described by Yates et al. (see Yates C, Shepard C R, Papworth G, Dash A, Beer Stolz D, Tannenbaum S, et al., Novel three-dimensional organotypic liver bioreactor to directly visualize early events in metastatic progression, Adv Cancer Res, 2007; 97:225-46; and Yates C, Shepard C R, Stolz D B, Wells A., Co-culturing human prostate carcinoma cells with hepatocytes leads to increased expression of E-cadherin, Br J Cancer 2007; 96:1246-52), with certain modifications as noted herein. The co-cultures consisted of 50,000 cells/cm^2 of GFP-HS-27a bone marrow stromal cells and 2000 cells/cm^2 of red fluorescent protein PC-3 prostate cancer cells (“RFP-PC-3”), and were maintained in Dulbecco's modified Eagle medium, and cell death was monitored in real-time (as described above) by differential fluorescence. To determine relative intensity, the total intensity area of each image as well as the threshold intensity for each channel was measured utilizing Metamorph Imaging Software (Molecular Devices, Inc., CA), and the significance between the two intensities was then analyzed statistically. All quantitative data was normalized to each control image.
For this experiment, RFP-PC-3 cell cultures, GFP-HS-27a cell cultures, and RFP-PC-3/GFP-HS-27a cell co-cultures were exposed to JCHmLHRH (5 μM) and JC21mLHRH (8 μM), and the various cultures were monitored by differential immunofluorescence over 12 h period. Images comprising black and white photographs of the cultures at the 0 hr, 6 hr, and 12 hr marks following administration of JCHmLHRH and JC21mLHRH are shown in FIG. 5C and FIG. 5D, respectively. Two trials of this experiment were conducted with similar results, and the photographs of FIG. 5C and FIG. 5D are illustrative of the results of both trials. […] Further, the RFP-PC-3/GFP-HS-27a co-culture images at the 6 hr and 12 hr marks largely resemble the corresponding time images for GFP-HS-27a cultures in relative intensity.
FIG. 5E in turn provides a chart showing the relative intensity of total areas measured under differential fluorescence of the co-culture cells after they were exposed to JCHmLHRH and JC21mLHRH in this experiment.

LNCaP cells = experiment: MTT cytotoxicity assay, LNCaP prostate cancer cells; format: cell-based, human; conditions: 72 h exposure
Excerpt: (§1) To evaluate the efficacy of these peptides in inhibiting prostate cancer, a prostate cancer progression model was followed that utilized several different cell lines in various experiments as described herein to form this model, including the known cell lines DU-145, PC-3, LNCaP, and hPrEC. […] This cell line has both LHRH-R and epidermal growth factor receptors (“EGFR”), and produces the EGFR ligands, transforming growth factor α (TGF-α) and EGF. The androgen-unresponsive PC-3 cell line is derived from a human bone metastasis of a grade IV prostatic adenocarcinoma, while the androgen-responsive LNCaP cell line is derived from a human lymph node metastasis. […]
(§2) In the various experiments described below, unless otherwise noted, the cytotoxicity of the various peptides when measured was evaluated using the methylthiazol tetrazolium (“MTT”) assay (Sigma Aldrich, MO), which determines the number of viable cells from the formazan crystals produced by metabolic activity. […] The quantity of solublized formazan per well was determined by a Spectromax plate reader at 540 nm (Molecular Devices, CA). […]

[2] = system: normal primary hPrEC cells; experiment: MTT cytotoxicity on normal primary prostate epithelial cells; format: cell-based, human; conditions: 0-20 μM
Excerpt: as §1, §2

DU-145 cells = experiment: MTT cytotoxicity assay, DU-145 prostate cancer cells; format: cell-based, human; conditions: 72 h exposure
Excerpt: as §1, §2

PC-3 cells [3] = format: cell-based, human; conditions: for IC50: MTT, 72 h exposure
Excerpt: To evaluate the efficacy of these peptides in inhibiting prostate cancer, a prostate cancer progression model was followed that utilized several different cell lines in various experiments as described herein to form this model, including the known cell lines DU-145, PC-3, LNCaP, and hPrEC. […] This cell line has both LHRH-R and epidermal growth factor receptors (“EGFR”), and produces the EGFR ligands, transforming growth factor α (TGF-α) and EGF. The androgen-unresponsive PC-3 cell line is derived from a human bone metastasis of a grade IV prostatic adenocarcinoma, while the androgen-responsive LNCaP cell line is derived from a human lymph node metastasis. For all experiments described herein, normal primary human prostate epithelial cells (“hPrEC”) were obtained from Clonetics (Lonza Inc., Walkersville, Md.), while the other cell lines were purchased from ATCC and maintained in T-media (Gibco Invitrogen, CA) supplemented with 10% fetal bovine serum (FBS) (Gibco Invitrogen, CA) and 1% penicillin/streptomycin (Cellgro Mediatech, Inc., VA).
In the various experiments described below, unless otherwise noted, the cytotoxicity of the various peptides when measured was evaluated using the methylthiazol tetrazolium (“MTT”) assay (Sigma Aldrich, MO), which determines the number of viable cells from the formazan crystals produced by metabolic activity. The cells in such cytotoxicity experiments were plated in 96-well plates at 2.5×10^3 cells/well, and were allowed to reattach overnight. They were then exposed to the test lytic peptides (1-20 μM) for 72 h. The MTT reagent [3-(4,5-dimethylthiazol-2-yl)-2,5-diphenyltetrazolium bromide], 50 μL) in T-media was added to each well, and the plates were incubated for 2 h. The supernatant media was aspirated, and formazan crystals were dissolved with […] dimethylsulfoxide per well at 37° C. for 10 min. The quantity of solublized formazan per well was determined by a Spectromax plate reader at 540 nm (Molecular Devices, CA). Each assay was performed at least three times with six replicates per data point.
For all experiments, unless otherwise noted, statistics were performed with Microsoft Excel. Independent Student's t-test was utilized to determine statistical differences between experimental subjects and control subjects. The IC50 values were derived through regression analysis of the continuous data by cubic spline interpolation utilizing Aabel™ (Gigawiz Ltd. Co., OK), a software application that integrates statistics (inferential and multivariate) with graphical representation.
To determine the effectiveness of JCH and JC21 with or without mLHRH conjugates, androgen-independent, highly metastatic PC-3 cells were exposed to the peptides in increasing concentrations (0-20 μM).
For this experiment, IC50 values were determined by interpolation of three individual experiments performed in quadruplicate at 50% cell death. All values were reported in the table of FIG. 2A were determined to be significant compared to control p<0.001. In the table, “n.d.” serves as an abbreviation for “not determined,” as tests were not conducted for JHC and JC21 against LNCaP and DU-145.

PC-3 cells [4] = experiment: PC-3 growth recovery after 24 h peptide pretreatment; format: cell-based, human; conditions: 24 h pretreatment JCHmLHRH 5 μM or JC21mLHRH 8 μM, 3 days
Experimental: This experiment was performed to determine whether cancerous cells could recover after JCHmLHRH or JC21mLHRH exposure. PC-3 cell cultures were exposed to JCHmLHRH (5 μM) or JC21mLHRH (8 μM) for 24 hours. Growth was measured over a 3-day period. Growth of pre-treatment and post-treatment groups were compared over time.

RFP-PC-3 cells = experiment: Co-culture differential fluorescence, RFP-PC-3 cells; format: cell-based, human; conditions: JCHmLHRH 5 μM or JC21mLHRH 8 μM, 12 hr
Experimental: In the various experiments described below, unless otherwise noted, co-cultures were prepared and utilized as described by Yates et al. (see Yates C, Shepard C R, Papworth G, Dash A, Beer Stolz D, Tannenbaum S, et al., Novel three-dimensional organotypic liver bioreactor to directly visualize early events in metastatic progression, Adv Cancer Res, 2007; 97:225-46; and Yates C, Shepard C R, Stolz D B, Wells A., Co-culturing human prostate carcinoma cells with hepatocytes leads to increased expression of E-cadherin, Br J Cancer 2007; 96:1246-52), with certain modifications as noted herein. The co-cultures consisted of 50,000 cells/cm^2 of GFP-HS-27a bone marrow stromal cells and 2000 cells/cm^2 of red fluorescent protein PC-3 prostate cancer cells (“RFP-PC-3”), and were maintained in Dulbecco's modified Eagle medium, and cell death was monitored in real-time (as described above) by differential fluorescence. To determine relative intensity, the total intensity area of each image as well as the threshold intensity for each channel was measured utilizing Metamorph Imaging Software (Molecular Devices, Inc., CA), and the significance between the two intensities was then analyzed statistically. All quantitative data was normalized to each control image. […]

[5] = system: PC-3 cells treated with siRNA-LHRH-R; experiment: Peptide sensitivity of PC-3 cells after siRNA-LHRH-R knockdown (trypan blue exclusion); format: cell-based, human; conditions: 100 nM siRNA-LHRH-R
Experimental: To more firmly establish the significance of the mLHRH sequence on peptide activity, PC-3 cells were treated with siRNA-LHRH at 50 nM and 100 nM concentrations and assayed LHRH levels by immunofluorescence. In this Experiment, PC-3 cells were treated with siRNA-LHRH-R at 50 nM and 100 nM, and compared to control. For this experiment, a total of about 2×10^5 cells, equaling approximately 60-70% confluency, were plated in six-well plates. The LHRH-R siRNA (Santa Cruz, Calif.) was diluted in […] of Opti-MEM (Invitrogen, CA). A […] aliquot of Lipofectamine 2000 (Invitrogen, CA) was diluted in […] of Opti-MEM and incubated for 5 min at room temperature. The diluted siRNA and Lipofectamine 2000 were mixed according to manufacturer's directions and incubated for 20 min at room temperature. The resulting complexes were added to each well and incubated for 24 h. […]
LHRH-R expression was determined by immuno-fluorescence staining with 4′,6-diamidino-2-phenylindole (“DAPI”) utilizing anti-LHRH-R antibody (Lab Vision, CA) and Alexa 488 secondary antibody (Invitrogen, CA).
For purposes of comparison, PC-3 cells were treated with JC21 mLHRH or JCHmLHRH in the presence or absence of 100 nM siRNA-LHRH-R or siRNA-scramble treated cells. Cell viability was determined by trypan blue exclusion, and the results are depicted in the graph of FIG. 3C.

PC-3 cells [6] = experiment: Real-time imaging, trypan blue exclusion and Annexin V in PC-3 cells; format: cell-based, human
Experimental: In the various experiments described below, unless otherwise noted, real-time imaging of cell cultures was performed utilizing an Olympus DSU (Disk Scanning Units) Confocal microscope (Olympus America Inc., PA). The subject cells were maintained in 5% CO2 at 37° C. in an incubation chamber (Pathology Devices, Inc., MD). Images were taken every 15 min and processed utilizing MetaMorph Imaging Software (Molecular Devices, CA).
Although the mechanism associated with the anti-tumor activity of lytic peptides has not been defined, without wishing to be limited to any mechanism of action, it is believed that direct interaction of the present lytic peptides with the cell membrane causes the electrochemical potential to collapse, resulting in cell death. To investigate the potential mechanism of action, a qualitative approach utilizing real-time imaging was employed in conjunction with monitoring of a classic marker of apoptosis, Annexin V. Since the mechanism of death was unknown, real-time imaging was employed for cells in a 5% CO2 and temperature-regulated (37° C.) chamber to monitor the effects of JC21mLHRH and JCHmLHRH on PC-3 cellular responses.
PC-3 cell cultures were exposed to JCHmLHRH (5 μM) or JC21mLHRH (8 μM) and imaged continuously for 24 h with time-lapse microscopy. FIG. 5A comprises eight black and white photographs depicting real-time images of PC-3 cells after treatment with lytic peptides JCHmLHRH (5 μM) or JC21mLHRH (8 μM) taken with time-lapse microscopy under 5% CO2 and 37° C. at 0, 3, 6, and 12 hours post administration. […] There were different modes of action by which JCHmLHRH and JC21mLHRH caused cell death.
FIG. 5B is a graph reporting experimental results for cell percentage corresponding to the images of FIG. 5A. Quantification of total cell number and cell viability was determined by trypan blue exclusion after exposure to JCHmLHRH (5 μM) or JC21mLHRH (8 μM) over a 24 h period. The results shown in the graph of FIG. 5B are representative of three individual experiments performed in triplicate (where the horizontal line at approximately 60% in the graph indicates significance at p<0.0001). The data indicates a rapid mode of action was observed by both the real-time imaging and trypan blue staining mechanisms, with nearly 80% cell death after only 6 h of treatment and approximately 100% cell death after the 24 h period.

QHWSWGLRPGFALALKALKKALKKLKKALKKAL [JCHmLHRH]
toxicity to bone marrow stromal cells in co-culture [1]: nontoxic
relative intensity of GFP-HS-27a cells [1]: only decreases slightly
IC50 (LNCaP cells): 4.36 µM and 4.4 µM
effect on hPrEC cell proliferation / toxicity [2]: neither JCHmLHRH nor JC21mLHRH causes appreciable decreases in hPrEC cell proliferation; also recorded: nontoxic
IC50 (DU-145 cells): 4.81 µM and 4.8 µM
IC50 (PC-3 cells [3]): 4.22 µM and 4.4 µM

QHWSWGLRPGAFKKAFKKAKKAFKKAFKAFAFA [JC21mLHRH]
toxicity to bone marrow stromal cells in co-culture [1]: nontoxic
relative intensity of GFP-HS-27a cells [1]: only decreases slightly
effect on hPrEC cell proliferation / toxicity [2]: neither JCHmLHRH nor JC21mLHRH causes appreciable decreases in hPrEC cell proliferation; also recorded: nontoxic
cell growth after pretreatment (PC-3 cells [4]): completely inhibited cell growth
relative intensity of RFP-PC-3 cells (RFP-PC-3 cells): approaches zero
decrease in sensitivity to peptide on depletion of LHRH levels [5]: 50%
morphological changes in cells (PC-3 cells [6]; PC-3 cells, 3 h exposure, real-time imaging): morphological changes
cell death (PC-3 cells [6]; PC-3 cells, JCHmLHRH 5 μM or JC21mLHRH 8 μM, 6 h of treatment): ~80%
cell death (PC-3 cells [6]; PC-3 cells, JCHmLHRH 5 μM or JC21mLHRH 8 μM, after the 24 h period): approximately 100%
mode of cell death observed under microscope (PC-3 cells [6]; PC-3 cells, JCHmLHRH 5 μM or JC21mLHRH 8 μM, time-lapse microscopy): condensing of the cellular and nuclear membrane without bursting
expression of apoptotic marker Annexin V (PC-3 cells [6]; exposed PC-3 cells): did not observe expression of apoptotic marker Annexin V

mLHRH: modified LHRH binding sequence, tryptophan in place of tyrosine, QHWSWGLRPG (ends and bridges not checked; listed as Homo sapiens)
cell death at higher concentrations (PC-3 cells [3]; mLHRH sequence alone): failed to cause 50% cell death
concentration causing a decrease in cell proliferation of PC-3 cells (as low as) (PC-3 cells [3]; mLHRH sequence alone): 1 µM

FALALKALKKALKKLKKALKKAL [JCH]
IC50 (PC-3 cells [3]): 6.67 µM

AFKKAFKKAKKAFKKAFKAFAFA [JC21]
IC50 (PC-3 cells [3]): 9.25 µM
